Source: US20250179047A1, “5-[7-(3,4-DIHYDRO-1H-ISOQUINOLINE-2-CARBONYL)-1,2,3,4 TETRAHYDROISOQUINOLIN-6-YL]-1H-PYRROLE-3-CARBOXAMIDE DERIVATIVES, PHARMACEUTICAL COMPOSITIONS CONTAINING THEM AND THEIR USES AS PRO-APOPTOTIC AGENTS” (LES LABORATOIRES SERVIER, priority 2022, published 2025)

Columns and labels:
BCL2 WT = BCL2 WT (Homo sapiens (Human), UniProt P10415); test: TR-FRET competitive binding assay, BCL2 WT; conditions: Ki determined from IC50, read-out: TR_FRET EKI_Bcl2 WT
Procedure: (§1) The relative binding potency of each compound was determined in a competitive binding assay using time resolved-fluorescence resonance energy transfer (TR-FRET). The method utilised a fluorescein labelled peptide derived from PUMA (5Flu-Ahx-[…]-NH2 wherein Ahx means 6-hexanoic acid monomer and the amino acid sequence is referred to as SEQ ID:01) which binds to a terbium labelled BCL2 or BCLXL protein. The degree of binding or corresponding compound inhibition can be quantified by the TR-FRET signal between the terbium donor and fluorescein acceptor.
(§2) The human BCL2_wild-type (also named BCL2_wt), BCL2_G101V mutant and BCLXL_wild-type were E. coli expressed as a N-terminal Halo-fusion proteins and singly labelled with Terbium on the Halo protein to afford the following amino acid sequences:
(§3) wherein the BCL2(1-207) sequence corresponds to UniProtKB® primary accession number P10415 and the BCLXL(2-196) sequence corresponds to UniProtKB® primary accession number Q07817-1.
(§4) The assay was performed in a 40 μL volume in white 384-standard well plates (Corning #3574). An 11-point serial dilution of each compound was prepared in DMSO and transferred directly to plate followed by addition of fluorescein labelled peptide and lastly protein. Final assay conditions were 0.5 nM BCL2_wt, BCL2_G101V, BCL2_D103Y, BCL2_F104I, BCL2_D111A or BCLXL_wt, 2 or 20 nM fluorescein labelled peptide, 50 mM Hepes pH 7.5, 150 mM NaCl, 0.5 mM TCEP (Tris(2-carboxyethyl)phosphine), 0.05% Tween 20, 5% DMSO. The mixture was incubated for 2 hours at 23° C.
(§5) TR-FRET measurements were performed on a Biotek Synergy Neo plate reader. TR-FRET was measured by excitation of the Terbium-donor at 340 nm and subsequent (delay time 100 μs) measurement of terbium and fluorescein emission at 495 nm and 520 nm, respectively, over a collection time of 300 μs. The TR-FRET signal was calculated as the emission-ratio at 520 nm over 495 nm.
(§6) The TR-FRET ratio readout for test compounds was normalized against 0% inhibition controls wells and 100% inhibition control wells. Test compound potency (IC50) was estimated by nonlinear regression using the sigmoidal dose-response (variable slope) using Xlfit 4 (IDBS, Guildford, Surrey, UK, model 205). Were the IC50 could not be determined the % inhibition at the highest tested concentration is given.
(§7) y=(A+((B−A)/(1+((C/x)^D))))
(§8) where y is the normalized TR-TRET ratio measurement for a given concentration of test compound, x is the concentration of test compound, A is the estimated efficacy (% inhibition) at infinite compound dilution, and B is the maximal efficacy (% inhibition). C is the IC50 value and D is the Hill slope coefficient.
(§9) The K1 values were determined from the IC50 values according to Cer et al, Nucleic Acids Res, 2009, July 1; 37 (WebServer issue): W441-W445.

BCL2 G101V [1] = biological target: BCL2 G101V (Homo sapiens, UniProt P10415, G101V); test: TR-FRET competitive binding assay, BCL2 G101V; conditions: BCL2 G101V; Ki determined from IC50; read-out: TR_FRET EKI_Bcl2 G101V
Procedure: as §1, §2, §3, §4, §5, §6, §7, §8, §9

BCL2 G101V [2] = test: TR-FRET competitive binding assay, BCL2 G101V; set-up: species or system human; conditions: ratio Ki BCL2 G101V / Ki BCL2 WT
Procedure: as §1, §2, §3, §4, §5, §6, §7, §8, §9

BCL2 D103Y = BCL2 D103Y (Homo sapiens, UniProt P10415, D103Y); test: TR-FRET competitive binding assay, BCL2 D103Y; conditions: Ki determined from IC50, read-out: TR_FRET EKI_Bcl2 D103Y
Procedure: as §1, §2, §3, §4, §5, §6, §7, §8, §9

BCLXL WT = BCLXL WT (Homo sapiens (Human), UniProt Q07817); test: TR-FRET competitive binding assay, BCLXL WT; conditions: for Ki: BCLXL WT, Ki determined from IC50, read-out: TR_FRET EKI BclxL; for TR_FRET EKI BCLxL/WT selectivty ratio: ratio Ki BCLxL / Ki BCL2 WT
Chain of BCLXL WT (Q07817 other isoform, or with tags, fused parts or gaps): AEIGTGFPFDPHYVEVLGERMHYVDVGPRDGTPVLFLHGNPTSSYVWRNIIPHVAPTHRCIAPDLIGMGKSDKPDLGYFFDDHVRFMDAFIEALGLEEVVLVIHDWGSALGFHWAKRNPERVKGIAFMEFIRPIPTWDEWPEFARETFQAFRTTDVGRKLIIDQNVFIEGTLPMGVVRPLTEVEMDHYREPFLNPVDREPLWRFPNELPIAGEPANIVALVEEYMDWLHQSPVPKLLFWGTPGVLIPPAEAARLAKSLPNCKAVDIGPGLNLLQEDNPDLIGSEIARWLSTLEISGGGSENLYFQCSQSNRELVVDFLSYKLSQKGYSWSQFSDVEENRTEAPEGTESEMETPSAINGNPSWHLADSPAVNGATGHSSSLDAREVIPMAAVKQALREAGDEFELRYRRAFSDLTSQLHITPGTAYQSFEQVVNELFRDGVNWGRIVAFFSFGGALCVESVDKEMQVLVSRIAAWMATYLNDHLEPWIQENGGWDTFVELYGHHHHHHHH
Procedure: as §1, §2, §3, §4, §5, §6, §7, §8, §9

KMS-12-PE Bcl-2 WT = test: In vitro cytotoxicity CellTiter-Glo 48 h, KMS-12-PE Bcl-2 WT; type: cell-based; conditions: Homo sapiens, KMS-12-PE, C50 = concentration needed to reach 50% of the cellular viability
Procedure: KMS-12-PE (ACC 606) were purchased from the Leibniz-Institute DSMZ (Braunschweig, Germany) and were grown at 37° C. in a humidified atmosphere with […] in media recommended by the suppliers. Lentiviral particles containing Bcl-2 wild type (also named “Bcl2 WT”) and Bcl-2 mutated on G101V (also named “Bcl2 G101V”) were cloned into pcLV-CMV-DEST-IRES-TagRFP. Lentiviral particles (1×106) were mixed with Polybrene at 8 µg/ml and transduced by spinoculation for 1 h at 32° C. and incubated overnight. After 8 days, TagRFP positive-cells were sorted by FACS. BCL2 expression was monitored by immunoblotting using anti-Flag and anti-BCL2 antibodies.
Cellular viability was monitored with the cell viability assay (CellTiter-Glo®) on KMS-12-PE WT and G101V cell lines. The CellTiter-Glo® (CTG) Luminescent Cell Viability Assay (from Promega) is a homogeneous method to determine the number of viable cells in culture based on quantitation of the ATP present, which signals the presence of metabolically active cells.
Dose response of compounds are performed with 10 mM stock solutions (DMSO), 11-points curve, in a 384-well compound plate. The assay plate is prepared by stamping 40 nL from compound dilution plate of all different concentrations (e.g. 10 mM to have final […] assay test) into a cell culture microplate, using Echo acoustic liquid handling (Labcyte, Beckman). 40 μl of cell solution is added and cells are incubated with compounds for 48 h at 37° C., 5% CO2. CTG was added to the cells (according to the manufacturer instructions) and luminescence intensity was recorded using the Pherastar plate reader (BMG).
This assay provides in vitro cellular potency of the tested Bcl-2 inhibitors, measuring the C50, defined as the concentration needed to reach 50% of the cellular viability.

SMILES	Ki (BCL2 WT)	Ki (BCL2 G101V [1])	TR_FRET EKI G101V/WT selectivty ratio (BCL2 G101V [2])	Ki (BCL2 D103Y)	Ki (BCLXL WT)	TR_FRET EKI BCLxL/WT selectivty ratio (BCLXL WT)	IC50 (KMS-12-PE Bcl-2 WT)
COc1ncc(N(C(=O)c2cc(-c3cc4c(cc3C(=O)N3Cc5ccccc5C[C@H]3C)CN(C(=O)Cc3ccc(OCCN5CCOCC5)cc3)CC4)n(C)c2C)c2ccccc2)cc1F [Example 183, N-(5-fluoro-6-methoxy-3-pyridyl)-1,2-dimethyl-5-[7-[(3R)-3-methyl-3,4-dihydro-1H-isoquinoline-2-carbonyl]-2-[2-[4-(2-morpholinoethoxy)phenyl]acetyl]-3,4-dihydro-1H-isoquinolin-6-yl]-N-phenyl-pyrrole-3-carboxamide]	0.13 nM	5.6 nM	43.8	0.35 nM	15.1 nM	117.3	0.0143 µM
Cc1c(C(=O)N(c2ccccc2)c2cnn(C)c2)cc(-c2cc3c(cc2C(=O)N2Cc4ccccc4C[C@H]2C)CN(C(=O)Cc2ccc(OCCN4CCOCC4)cc2)CC3)n1C [Example 184, 1,2-dimethyl-5-[7-[(3R)-3-methyl-3,4-dihydro-1H-isoquinoline-2-carbonyl]-2-[2-[4-(2-morpholinoethoxy)phenyl]acetyl]-3,4-dihydro-1H-isoquinolin-6-yl]-N-(1-methylpyrazol-4-yl)-N-phenyl-pyrrole-3-carboxamide]	0.03 nM	2 nM	66.2	0.09 nM	12.3 nM	411.3	0.0061 µM
Cc1c(N(C(=O)c2cc(-c3cc4c(cc3C(=O)N3Cc5ccccc5C[C@H]3C)CN(C(=O)Cc3ccc(OCCN5CCOCC5)cc3)CC4)n(C)c2C)c2ccc(F)cc2)cc(C#N)n1C [Example 185, N-(5-cyano-1,2-dimethyl-pyrrol-3-yl)-N-(4-fluorophenyl)-1,2-dimethyl-5-[7-[(3R)-3-methyl-3,4-dihydro-1H-isoquinoline-2-carbonyl]-2-[2-[4-(2-morpholinoethoxy)phenyl]acetyl]-3,4-dihydro-1H-isoquinolin-6-yl]pyrrole-3-carboxamide]	0.06 nM	1.5 nM	23.4	0.13 nM	5.9 nM	92.8	0.0051 µM
Cc1nn(C)cc1N(C(=O)c1cc(-c2cc3c(cc2C(=O)N2Cc4ccccc4C[C@H]2C)CN(C(=O)Cc2ccc(OCCN4CCOCC4)cc2F)CC3)n(C)c1C)c1ccccc1 [Example 187, N-(1,3-dimethylpyrazol-4-yl)-5-[2-[2-[2-fluoro-4-(2-morpholinoethoxy)phenyl]acetyl]-7-[(3R)-3-methyl-3,4-dihydro-1H-isoquinoline-2-carbonyl]-3,4-dihydro-1H-isoquinolin-6-yl]-1,2-dimethyl-N-phenyl-pyrrole-3-carboxamide]	0.03 nM	2.7 nM	78.9	0.08 nM	17.3 nM	507.9	0.0069 µM
Cc1nn(C)cc1N(C(=O)c1cc(-c2cc3c(cc2C(=O)N2Cc4ccccc4C[C@H]2C)CN(C(=O)Cc2ccc(OCCN4CCOCC4)cc2)CC3)n(C)c1C)c1ccccc1 [Example 188, N-(1,3-dimethylpyrazol-4-yl)-1,2-dimethyl-5-[7-[(3R)-3-methyl-3,4-dihydro-1H-isoquinoline-2-carbonyl]-2-[2-[4-(2-morpholinoethoxy)phenyl]acetyl]-3,4-dihydro-1H-isoquinolin-6-yl]-N-phenyl-pyrrole-3-carboxamide]	0.03 nM	2.2 nM	71.6	0.09 nM	23.9 nM	769.6	0.0113 µM
COCC(=O)N1CCc2cc(-c3cc(C(=O)N(c4ccccc4)c4cc(C#N)n(C)c4C)c(C)n3C)c(C(=O)N3Cc4ccccc4C[C@H]3CN3CCCCC3)cc2C1 [Example 189, N-(5-cyano-1,2-dimethyl-pyrrol-3-yl)-5-[2-(2-methoxyacetyl)-7-[(3S)-3-(1-piperidylmethyl)-3,4-dihydro-1H-isoquinoline-2-carbonyl]-3,4-dihydro-1H-isoquinolin-6-yl]-1,2-dimethyl-N-phenyl-pyrrole-3-carboxamide]	0.19 nM	17.4 nM	92.0	1.99 nM	33.4 nM	176.8	0.0299 µM
Cc1c(C(=O)N(c2ccccc2)c2cnn(C(F)F)c2)cc(-c2cc3c(cc2C(=O)N2Cc4ccccc4C[C@H]2C)CN(C(=O)Cc2ccc(OCCN4CCOCC4)cc2)CC3)n1C [Example 190, N-[1-(difluoromethyl)pyrazol-4-yl]-1,2-dimethyl-5-[7-[(3R)-3-methyl-3,4-dihydro-1H-isoquinoline-2-carbonyl]-2-[2-[4-(2-morpholinoethoxy)phenyl]acetyl]-3,4-dihydro-1H-isoquinolin-6-yl]-N-phenyl-pyrrole-3-carboxamide]	0.05 nM	3.6 nM	73.4	0.12 nM	16.8 nM	342.7	0.0077 µM
COc1ccc(N(C(=O)c2cc(-c3cc4c(cc3C(=O)N3Cc5ccccc5C[C@H]3C)CN(C(=O)Cc3ccc(OCCN5CCOCC5)cc3)CC4)n(C)c2C)c2ccccc2)cn1 [Example 191, N-(6-methoxy-3-pyridyl)-1,2-dimethyl-5-[7-[(3R)-3-methyl-3,4-dihydro-1H-isoquinoline-2-carbonyl]-2-[2-[4-(2-morpholinoethoxy)phenyl]acetyl]-3,4-dihydro-1H-isoquinolin-6-yl]-N-phenyl-pyrrole-3-carboxamide]	0.04 nM	2.4 nM	65.3	0.07 nM	9.5 nM	264.0	0.0131 µM
